Results taken from patent publication US20230111853A1, “COMPOUNDS MODULATING PROTEIN RECRUITMENT AND/OR DEGRADATION” (Orionis Biosciences, Inc., priority 2019, published 2023).

Legend:
[1] = biological target: T1, SALL4 recruitment to CRBN (Homo sapiens, UniProt Q96SW2); experiment: Recruitment Assay (MAPPIT-like): SALL4 recruitment to CRBN; assay type: cell-based; conditions: HEK293T cells; pSEL-SALL4+pMG1-CRBN; luciferase 24 hours after treatment; read-out: EC50_SALL4
T1 construct: Full size proteins were fused for each of the target proteins tested, except in the case of IKZF1 where isoform 7 was used; expressed in transfected cells; host or cells: HEK293T
T1 sequence (Q96SW2 whole entry, the tested form may be a part, canonical isoform): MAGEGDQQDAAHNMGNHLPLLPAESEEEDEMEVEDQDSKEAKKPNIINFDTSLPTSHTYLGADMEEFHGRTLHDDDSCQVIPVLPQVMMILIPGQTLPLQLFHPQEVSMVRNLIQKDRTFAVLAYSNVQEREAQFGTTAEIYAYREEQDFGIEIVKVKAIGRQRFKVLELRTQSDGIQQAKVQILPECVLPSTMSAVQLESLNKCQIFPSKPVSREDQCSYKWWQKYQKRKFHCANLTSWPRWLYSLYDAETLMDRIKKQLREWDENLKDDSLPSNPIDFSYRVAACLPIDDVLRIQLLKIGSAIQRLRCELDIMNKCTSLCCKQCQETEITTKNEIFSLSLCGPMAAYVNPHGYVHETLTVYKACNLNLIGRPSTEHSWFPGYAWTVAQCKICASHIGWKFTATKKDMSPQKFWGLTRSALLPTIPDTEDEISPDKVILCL
T1 sequence (Q9UJQ4 whole entry partner, the tested form may be a part, canonical isoform): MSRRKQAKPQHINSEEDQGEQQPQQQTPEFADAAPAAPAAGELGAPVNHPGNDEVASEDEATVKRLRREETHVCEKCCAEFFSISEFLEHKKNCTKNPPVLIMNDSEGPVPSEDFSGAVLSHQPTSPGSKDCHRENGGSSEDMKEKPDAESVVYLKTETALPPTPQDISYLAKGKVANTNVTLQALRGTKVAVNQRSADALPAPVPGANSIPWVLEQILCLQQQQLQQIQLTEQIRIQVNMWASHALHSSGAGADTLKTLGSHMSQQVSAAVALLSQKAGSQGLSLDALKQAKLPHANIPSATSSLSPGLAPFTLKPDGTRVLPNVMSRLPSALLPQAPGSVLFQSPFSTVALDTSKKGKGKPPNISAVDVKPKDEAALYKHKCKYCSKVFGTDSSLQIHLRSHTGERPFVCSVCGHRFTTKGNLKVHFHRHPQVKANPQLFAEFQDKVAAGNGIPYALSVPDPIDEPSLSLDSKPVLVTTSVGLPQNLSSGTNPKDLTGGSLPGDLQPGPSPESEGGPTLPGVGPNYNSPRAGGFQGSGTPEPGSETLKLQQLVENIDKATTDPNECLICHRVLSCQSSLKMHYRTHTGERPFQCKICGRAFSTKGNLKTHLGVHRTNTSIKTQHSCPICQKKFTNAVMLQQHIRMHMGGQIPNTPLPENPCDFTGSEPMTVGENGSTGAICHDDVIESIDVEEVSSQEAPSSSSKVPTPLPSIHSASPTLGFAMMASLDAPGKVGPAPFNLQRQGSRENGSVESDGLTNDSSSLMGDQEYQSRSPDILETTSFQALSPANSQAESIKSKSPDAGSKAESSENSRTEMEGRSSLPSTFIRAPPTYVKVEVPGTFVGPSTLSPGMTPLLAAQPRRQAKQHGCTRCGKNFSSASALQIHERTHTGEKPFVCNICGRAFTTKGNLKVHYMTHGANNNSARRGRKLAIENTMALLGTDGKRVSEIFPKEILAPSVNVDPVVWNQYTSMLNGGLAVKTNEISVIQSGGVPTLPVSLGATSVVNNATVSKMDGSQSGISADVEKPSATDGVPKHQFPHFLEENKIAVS
T1 sequence (Q16531 whole entry partner, the tested form may be a part, canonical isoform): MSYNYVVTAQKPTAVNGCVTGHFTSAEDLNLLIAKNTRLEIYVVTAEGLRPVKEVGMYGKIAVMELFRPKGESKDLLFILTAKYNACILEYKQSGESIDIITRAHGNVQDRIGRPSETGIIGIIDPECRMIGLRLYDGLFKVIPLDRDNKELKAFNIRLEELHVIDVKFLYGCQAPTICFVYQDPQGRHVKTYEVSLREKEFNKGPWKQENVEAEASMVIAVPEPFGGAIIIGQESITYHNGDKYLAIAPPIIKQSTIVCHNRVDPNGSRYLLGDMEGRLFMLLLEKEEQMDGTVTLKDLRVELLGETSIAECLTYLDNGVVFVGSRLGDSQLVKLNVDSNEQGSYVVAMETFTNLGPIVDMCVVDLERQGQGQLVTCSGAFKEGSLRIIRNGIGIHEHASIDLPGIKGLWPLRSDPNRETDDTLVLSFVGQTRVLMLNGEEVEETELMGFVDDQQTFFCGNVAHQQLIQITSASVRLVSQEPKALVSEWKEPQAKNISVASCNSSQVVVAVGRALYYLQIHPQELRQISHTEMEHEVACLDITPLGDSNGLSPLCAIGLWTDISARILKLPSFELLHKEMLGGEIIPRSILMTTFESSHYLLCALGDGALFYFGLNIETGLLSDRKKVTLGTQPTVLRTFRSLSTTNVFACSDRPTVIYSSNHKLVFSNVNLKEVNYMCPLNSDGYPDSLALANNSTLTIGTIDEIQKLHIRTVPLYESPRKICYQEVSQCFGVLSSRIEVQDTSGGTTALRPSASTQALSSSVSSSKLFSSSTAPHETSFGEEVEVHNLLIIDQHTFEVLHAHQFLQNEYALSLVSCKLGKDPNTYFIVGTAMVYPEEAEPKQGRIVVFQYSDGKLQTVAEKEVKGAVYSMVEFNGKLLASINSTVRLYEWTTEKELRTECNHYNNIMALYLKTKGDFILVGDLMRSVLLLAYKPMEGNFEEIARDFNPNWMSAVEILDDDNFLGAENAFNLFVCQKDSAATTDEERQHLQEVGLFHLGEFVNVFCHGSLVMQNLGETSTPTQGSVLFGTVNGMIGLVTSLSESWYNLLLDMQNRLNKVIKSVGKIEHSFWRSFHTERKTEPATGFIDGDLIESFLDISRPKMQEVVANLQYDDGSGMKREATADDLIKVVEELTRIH
Description: (§1) In this experimental set-up, cells were transfected with a construct encoding a CRBN-fusion protein and another one encoding a substrate-fusion protein. Test compound activity was assessed with increasing concentrations of test compounds (dose-response studies) to monitor the ability to promote CRBN-ligand-induced protein interaction.
(§2) Full size proteins were fused for each of the target proteins tested, except in the case of IKZF1 where isoform 7 was used. For the study, the following were used: IKZF1 recruitment: pSEL-CRBN+pMG1-IKZF1(isoform 7); ASS1 recruitment: pSEL-CRBN+pMG1-ASS1. SALL4 recruitment: pSEL-SALL4+pMG1-CRBN. […] Luciferase activity was measured 24 hours after test compound treatment using the Luciferase Assay System kit (PROMEGA, Madison, Wis.) with an Ensight plate reader (PERKIN ELMER LIFE SCIENCES, Waltham, Mass.). Data points depicted fold induction of the average luciferase activity of triplicate samples from EPO+test compound treated cells versus EPO only treated cells. Error bars represent standard deviations. Curves were fit using 4-parameter nonlinear regression in […] PRISM software.

[2] = tested on: IKZF1, ASS1 and SALL4 recruitment to CRBN; experiment: Recruitment assessment: recruitment of any tested substrate from among IKZF1, ASS1 and SALL4; assay type: cell-based; conditions: any tested substrate at any tested compound concentration
Description: as §1, §2

EC50 [1] | Compound | Recruitment Assessment [2]
2170 nM | O=C(O)CNc1cccc2c1C(=O)N(C1CCC(=O)NC1=O)C2 (stereo not drawn) [C47998, 2-[[2-(2,6-dioxo-3-piperidyl)-3-oxo-isoindolin-4-yl]amino]acetic acid] | TRUE
772 nM | Cc1ccc2nnn(C3CCC(=O)NC3=O)c(=O)c2c1 (stereo not drawn) [C16463, 3-(6-methyl-4-oxo-1,2,3-benzotriazin-3-yl)piperidine-2,6-dione] | TRUE
1380 nM | O=C1CCC(N2Cc3ccc(NC(=O)c4cnc5nccn5c4)cc3C2=O)C(=O)N1 (stereo not drawn) [C80396, N-[2-(2,6-dioxo-3-piperidyl)-3-oxo-isoindolin-5-yl]imidazo[1,2-a] pyrimidine-6-carboxamide] | TRUE
2700 nM | CC(C)OC1c2ccccc2C(=O)N1C1CCC(=O)NC1=O (stereo not drawn) [3-(1-isopropoxy-3-oxo-isoindolin-2-yl)piperidine-2,6-dione] | TRUE
441 nM | O=C1CCC(N2Cc3ncccc3C2=O)C(=O)N1 (stereo not drawn) [C47959, 3-(5-oxo-7H-pyrrolo[3,4-b]pyridin-6-yl)piperidine-2,6-dione] | TRUE
2620 nM | O=C1CCC(N2Cc3ccc(NCC(=O)NC4CCOCC4)cc3C2=O)C(=O)N1 (stereo not drawn) [C12693, 2-[[2-(2,6-dioxo-3-piperidyl)-3-oxo-isoindolin-5-yl]amino]-N-tetrahydropyran-4-yl-acetamide] | TRUE
559 nM | O=C1CCC(N2Cc3cc(Nc4ncc5[nH]cnc5n4)ccc3C2=O)C(=O)N1 (stereo not drawn) [C80376, 3-[1-oxo-5-(7H-purin-2-ylamino)isoindolin-2-yl]piperidine-2,6-dione] | TRUE
1010 nM | CC(Nc1ccc2c(c1)C(=O)N(C1CCC(=O)NC1=O)C2)C(=O)O (stereo not drawn) [C84970, 2-[[2-(2,6-dioxo-3-piperidyl)-3-oxo-isoindolin-5-yl]amino] propanoic acid] | TRUE
641 nM | NC(=O)c1cccc(NC(=O)CNc2ccc3c(c2)CN(C2CCC(=O)NC2=O)C3=O)c1 (stereo not drawn) [C35811, 3-[[2-[[2-(2,6-dioxo-3-piperidyl)-1-oxo-isoindolin-5-yl]amino]acetyl]amino]benzamide] | TRUE
904 nM | Cc1ccc2c(=O)n(C3CCC(=O)NC3=O)nnc2c1 (stereo not drawn) [C17800, 3-(7-methyl-4-oxo-1,2,3-benzotriaan-3-yl)piperidirie-2,6-dione] | TRUE
873 nM | COCC(=O)Nc1cccc2c1CN(C1CCC(=O)NC1=O)C2=O (stereo not drawn) [C22564, N-[2-(2,6-dioxo-3-piperidyl)-1-oxo-isoindolin-4-yl]-2-methoxy-acetamide] | TRUE
186 nM | CC(=O)Nc1ccc2c(c1)CN(C1CCC(=O)NC1=O)C2=O (stereo not drawn) [C29361, N-[2-(2,6-dioxo-3-piperidyl)-1-oxo-isoindolin-5-yl]acetamide] | TRUE
395 nM | O=C1CCC(N2Cc3ccc(-c4ccccc4)cc3C2=O)C(=O)N1 (stereo not drawn) [C48018, 3-(1-oxo-6-phenyl-isoindolin-2-yl)piperidine-2,6-dione] | TRUE
88.2 nM | O=C1CCC(N2Cc3cccc(F)c3C2=O)C(=O)N1 (stereo not drawn) [C23066, 3-(7-fluoro-1-oxo-isoindolin-2-yl)piperidine-2,6-dione] | TRUE
581 nM | N#Cc1cccc2c1CN(C1CCC(=O)NC1=O)C2=O (stereo not drawn) [C48003, 2-(2,6-dioxo-3-piperidyl)-1-oxo-isoindoline-4-carbonitrile] | TRUE
1460 nM | CN(C)C1c2ccccc2C(=O)N1C1CCC(=O)NC1=O (stereo not drawn) [C10981, 3-[1-(dimethylamino)-3-oxo-isoindolin-2-yl]piperidine-2,6-dione] | TRUE
122 nM | O=C1CCC(N2Cc3cc(-c4ccccc4)ccc3C2=O)C(=O)N1 (stereo not drawn) [C48016, 3-(1-oxo-5-phenyl-isoindolin-2-yl)piperidine-2,6-dione] | TRUE
 | Cc1c(N)cccc1C(=O)NC1CCC(=O)NC1=O (stereo not drawn) [C38930, 3-amino-N-(2,6-dioxo-3-piperidyl)-2-methyl-benzamide] | FALSE
 | CN1CCC2(CC1)CC(=O)N(C1CCC(=O)NC1=O)C2=O (stereo not drawn) [C64372, 2-(2,6-dioxo-3-piperidyl)-8-methyl-2,8-diazaspiro[4.5]decane-1,3-dione] | FALSE
 | O=C1CCC(N2Cc3ccc(N4CCNC4=O)cc3C2=O)C(=O)N1 (stereo not drawn) [C84971, 3-[1-oxo-6-(2-oxoimidazolidin-1-yl)isoindolin-2-yl]piperidine-2,6-dione] | FALSE

EC50 [1] | Compound | Recruitment Assessment [2]
 | O=C1N=CC(N2C(=O)c3ccccc3C2=O)C(=O)N1 (stereo not drawn) [C49278, 2-(2,6-dioxo-5H-pyrimidin-5-yl)isoindoline-1,3-dione] | FALSE
 | O=C1CCC(N2C(=O)C=C(c3ccccc3)C2=O)C(=O)N1 (stereo not drawn) [C64319, 3-(2,5-dioxo-3-phenyl-pyrrol-1-yl)piperidine-2,6-dione] | FALSE
 | Cc1nc(N(C)C)cc2c1C(=O)N(C1CCC(=O)NC1=O)C2=O (stereo not drawn) [C64376, 6-(dimethylamino)-2-(2,6-dioxo-3-piperidyl)-4-methyl-pyrrolo[3,4-c] pyridine-1,3-dione] | FALSE
 | O=C1CC=CC(C(=O)NC2CCC(=O)NC2=O)=N1 (stereo not drawn) [C98696, N-(2,6-dioxo-3-piperidyl)-2-oxo-3H-pyridine-6-carboxamide] | FALSE
 | CC1CC(NC(=O)CNc2ccc3c(c2)C(=O)N(C2CCC(=O)NC2=O)C3)CCO1 (stereo not drawn) [C12695, 2-[[2-(2,6-dioxo-3-piperidyl)-3-oxo-isoindolin-5-yl]amino]-N-(2-methyltetrahydropyran-4-yl)acetamide] | FALSE
 | Cc1cccc2c1C(=O)N(C1CCC(=O)NC1=O)C2 (stereo not drawn) [C28661, 3-(7-methyl-1-oxo-isoindolin-2-yl)piperidine-2,6-dione] | FALSE
 | CC1CCCN(C(=O)CNc2ccc3c(c2)C(=O)N(C2CCC(=O)NC2=O)C3)C1 (stereo not drawn) [C12583, 3-[6-[[2-(3-methyl-1-piperidyl)-2-oxo-ethyl]amino]-1-oxo-isoindolin-2-yl]piperidine-2,6-dione] | FALSE
 | O=C1CCC(N2Cc3ccc(C(F)(F)F)cc3C2=O)C(=O)N1 (stereo not drawn) [C45748, 3-[1-oxo-6-(trifluoromethyl)isoindolin-2-yl]piperidine-2,6-dione] | FALSE
 | CC(=O)Nc1ccc2c(c1)C(=O)N(C1CCC(=O)NC1=O)C2 (stereo not drawn) [C29408, N-[2-(2,6-dioxo-3-piperidyl)-3-oxo-isoindolin-5-yl]acetamide] | FALSE
 | NC(=O)CNc1ccc2c(c1)C(=O)N(C1CCC(=O)NC1=O)C2 (stereo not drawn) [C84961, 2-[[2-(2,6-dioxo-3-piperidyl)-3-oxo-isoindolin-5-yl]amino]acetamide] | FALSE
 | N#Cc1ccc(Nc2ccc3c(c2)C(=O)N(C2CCC(=O)NC2=O)C3)nn1 (stereo not drawn) [C80389, 6-[[2-(2,6-dioxo-3-piperidyl)-3-oxo-isoindolin-5-yl]amino]pyridazine-3-carbonitrile] | FALSE
 | O=C1CCC(N2C(=O)CC(NC(=O)OCc3ccccc3)C2=O)C(=O)N1 (stereo not drawn) [C64344, benzyl N-[1-(2,6-dioxo-3-piperidyl)-2,5-dioxo-pyrrolidin-3-yl]carbamate] | FALSE
 | O=C1CCC(N2Cc3cc(Nc4ncnc5ccccc45)ccc3C2=O)C(=O)N1 (stereo not drawn) [C80373, 3-[-oxo-5-(quinazolin-4-ylamino)isoindolin-2-yl]piperidine-2,6-dione] | TRUE
 | CC1CCCN(C(=O)CNc2ccc3c(c2)C(=O)N(C2CCC(=O)NC2=O)C3)CC1 (stereo not drawn) [C12697, 3-[6-[[2-(4-methylazepan-1-yl)-2-oxo-ethyl]amino]-1-oxo-isoindolin-2-yl]piperidine-2,6-dione] | FALSE
 | O=C1CCC(N2Cc3cc(Nc4ncnc5sccc45)ccc3C2=O)C(=O)N1 (stereo not drawn) [C80370, 3-[1-oxo-5-(thieno[2,3-d]pyrimidin-4-ylamino)isoindolin-2-yl] piperidine-2,6-dione] | FALSE
 | Nc1nc(Nc2ccc3c(c2)CN(C2CCC(=O)NC2=O)C3=O)nc2sccc12 (stereo not drawn) [C80379, 3-[5-[(4-aminothieno[2,3-d]pyrimidin-2-yl)amino]-1-oxo-isoindolin-2-yl]piperidine-2,6-dione] | TRUE
 | CC(=O)NCC(=O)Nc1ccc2c(c1)C(=O)N(C1CCC(=O)NC1=O)C2 (stereo not drawn) [C84967, 2-acetamido-N-[2-(2,6-dioxo-3-piperidyl)-3-oxo-isoindolin-5-yl]acetamide] | TRUE
 | O=C1CCC(N2Cc3cccc([N+](=O)[O-])c3C2=O)C(=O)N1 (stereo not drawn) [C99884, 3-(7-nitro-1-oxo-isoindolin-2-yl)piperidine-2,6-dione] | FALSE
 | O=C1CCC(N2C(=O)c3ccccc3C2=O)C(=O)N1 (stereo not drawn) [THL, Thalidomide, reference compound] | TRUE
 | O=C1CCC(N2Cc3cccc(O)c3C2=O)C(=O)N1 (stereo not drawn) [C28973, 3-(7-hydroxy-1-oxo-isoindolin-2-yl)piperidine-2,6-dione] | TRUE
